Experiments:
[1] = biological target: HIV-1 Rev protein RNA recognition element (RRE); test: Solid-phase assay: displacement of fluorescent Rev peptide from immobilized RRE; assay type: binding; settings: for (e) Ratio (c)/(b): IC50 with polyA-polyU divided by IC50 without competitor, proportional to RRE selectivity; for change of ratio (c)/(b) upon guanidinylation: decrease = more selective for the RRE than amino precursor; for activity in the presence of competing nucleic acids: competing DNA / tRNA
Excerpt: To facilitate the discovery of active guanidinoglycosides an assay system using HIV-1 response elements can be used. For example, RRE-specific binders as well as TAR specific binders can be identified using the methods of the present invention. The present invention provides a rapid screening assay and method depicted in FIG. 4. The Rev-RRE assay relies on the release of a fluorescently tagged Rev fragment from an immobilized RRE-Rev complex and can be performed under various stringency levels. The assay can be conducted in the presence of competing RNA molecules, other potential cellular targets, or cellular extracts. Only high affinity ligands can effectively compete with the bound Rev34-50 peptide (Kd is approximately 1 nM), thus releasing the highly fluorescent molecules into solution. Non-selective binders will be scavenged by competitor molecules present in solution.
In one embodiment, the present invention provides an assay for identifying a test compound which binds to RRE. The assay includes an immobilized RRE, a detectably labeled Rev, and a test compound. A test compound that liberates the labeled Rev due to competitive binding to the RRE results in an increase in the labeled Rev in the supernatant of the assay. Accordingly, following incubation of immobilized RRE, a labeled Rev, and a test compound, the supernatant is measured and the amount of label in the supernatant is determined. The amount of label in the supernatant is indicative of the degree or ability of the test compound to bind to the RRE or REV polypeptide. By comparing the amount of label in the supernatant with the amount in a control or standard sample, one can identify a test compound which effectively competes with the Rev for binding to RRE. […] In the depicted embodiment of FIG. 4 the ternary complex containing a fluorescently tagged Rev peptide bound to an immobilized RRE is incubated with the test compound (e.g., a potential competitor, binding agent or inhibitor)under conditions and in the presence of competing RNA molecules n a microcentrifuge filter tube. After incubation, the mixture is filtered and the filtrate is illuminated. In the presence of a strong and selective RRE binder, the fluorescently labeled peptide will be released from the beads into solution and the filtrate will become fluorescent.
The basic principle of the assay systems used to identify compounds that inhibit binding of Rev to RRE or compounds that interact with RRE involves preparing a reaction mixture containing the target (e.g., RRE) and the binding partner (e.g., labeled-Rev) under conditions and for a time sufficient to allow the two to interact and bind, thus form a complex. In order to test a compound for inhibitory activity, the reaction mixture is prepared in the presence and absence of the test compound. The test compound can be initially included in the reaction mixture, or can be added at a time subsequent to the addition of the RRE and its binding partner, Rev. Control reaction mixtures are incubated without the test compound or with a placebo. The presence of labeled-Rev that is not bound to RRE over that amount found in a control or standard sample is indicative of a test compound that competes with Rev for binding to RRE.
A novel solid-phase assembly was used to evaluate the RNA specificity of the new derivatives. This assay relies on the displacement of a fluorescent Rev peptide from a solid-phase immobilized RRE and can be performed in the presence of competing nucleic acids. Table 4 (columns b-d) summarizes the IC50 values determined by this method. By comparing IC50 values measured in the absence of any competitors to the values measured in the presence of DNA or RNA, a quantitative measure for the relative selectivity of each ligand can be made. Aminoglycosides have a substantial affinity to poly A-poly U duplex RNA (compare column b to c, Table 4). […] For neomycin, this ratio increases upon guanidinylation, indicating a lower RRE selectivity. […]

[2] = biological target: HIV-1 Rev protein RNA recognition element (RRE); test: Fluorescence anisotropy: displacement of fluorescein-labeled Rev peptide from the RRE in solution; assay type: binding; settings: for increase in inhibitory activity upon guanidinylation relative to the parent compound: fluorescence anisotropy IC50, guanidinylated vs parent
Excerpt: In a modification of the above assay, the solid support aspect of the above embodiment is removed. The biophysical characteristics of potential inhibitory test compounds can be detected by fluorescence anisotropy as depicted in FIG. 5. The RRE-bound fluorescent peptide has a slower Brownian tumbling motion relative to the free peptide in solution. Upon displacement of the fluorescently labeled Rev from the RRE by a competing inhibitor, a decrease in the anisotropy value is observed. The displacement of the labeled-Rev can be followed by monitoring the anisotropy at the emission wavelength of the Rev34-50-bound fluorophore.
The HIV-1 Rev-RRE interaction was used to examine the impact of guanidinylation upon RNA binding, and to probe the potential antiviral activity of these compounds. The binding of Rev to the RRE (Rev response element) is responsible for the export of unspliced and singly spliced HIV genomic RNA out of the host nucleus. This essential protein-RNA interaction remains an important, and nonutilized, therapeutic target. The high-affinity Rev binding site on the RRE has been localized to the purine-rich bulge. The binding of Rev to the RRE is governed by the arginine-rich fragment, Rev34-50. Key guanidinium groups make direct contacts with the RNA platform and are essential for the specific binding of Rev to the RRE. Fluorescence anisotropy has been employed to determine the affinity of the new derivatives to the RRE in solution. The RRE-bound fluorescent Rev peptide has a slower Brownian tumbling motion relative to the free peptide. Upon displacement of the fluorescein-labeled Rev peptide from the RRE by an inhibitor, a decrease in the anisotropy value is observed. Table 4 (column a) compares the IC50 values of the guanidinoglycosides to the aminoglycosides. Guanidinylation of kanamycin A, kanamycin B, and tobramycin results in a greater than 10-fold increase in inhibitory activity relative to the parent compounds. A 5-fold increase in activity is observed upon guanidinylation of neomycin B and paromomycin.

[3] = system: HIV-1; test: Inhibition of viral replication in HIV-1-infected CD4+ HeLa cells (plaque formation); assay type: cell-based
Protocol: By converting aminoglycosides into guanidinoglycosides the biological activities of these glycosides were dramatically affected. Neomycin B was reported to be an in vivo and in vitro inhibitor of Rev-RRE binding, as well as an effective inhibitor of HIV-1 replication in vivo. The ability of guanidinoneomycin B and guanidinotobramycin to inhibit viral replication in HIV-1-infected CD4+ HeLa cells was measured and compared to the antiviral activities of neomycin B and tobramycin (FIG. 6). As evidenced by the dose-dependent decrease in plaque formation, the guanidinoglycosides inhibit HIV replication with activities approximately 100 times higher than their amino precursors (FIG. 6). The antiviral activity of the guanidinoglycosides may be related to their ability to bind the RRE with high affinity and specificity, thus preventing the HIV-1 Rev-RRE interaction and viral replication.

[4] = 15 ug/mL plasmid DNA (pGEM), read-out: IC50 (d) Solid-Phase + DNA
[5] = 15 ug/mL polyA-polyU duplex RNA, read-out: IC50 (c) Solid-Phase + poly A polyU
[6] = Solid-phase, no competitor (Table 4), read-out: IC50 (b) Solid-Phase
[7] = Fluorescence Anisotropy (Table 4), read-out: IC50 (a) Anisotrophy
[8] = Fluorescence Anisotropy, guanidino form of the glycoside (Table 3), read-out: IC50 (uM) guandino form
[9] = Solid Phase Assay, competing DNA (Table 2), read-out: IC50 with DNA
[10] = Solid Phase Assay, competing tRNA (Table 2), read-out: IC50 with tRNA
[11] = Solid Phase Assay, no competitor (Table 2), read-out: IC50
[12] = Fluorescence Anisotropy, amino form of the glycoside (Table 3), read-out: IC50 (uM) amino form

Structure (SMILES)	IC50 [1, 4] [µM]	IC50 [1, 5] [µM]	(e) Ratio (c)/(b) [1]	IC50 [1, 6] [µM]	IC50 [2, 7] [µM]	IC50 [2, 8] [µM]	inhibition of HIV replication, activity relative to parent aminoglycoside [3]	IC50 [1, 9] [µM]	IC50 [1, 10] [µM]	IC50 [1, 11] [µM]	change of ratio (c)/(b) upon guanidinylation [1]	activity in the presence of competing nucleic acids ([1]; solid phase assay)	IC50 [2, 12] [µM]	more active when compared to tobramycin that has not been guanidinylated ([1]; solid phase assay)	increase in inhibitory activity upon guanidinylation relative to the parent compound [2] [fold]
N=C(N)NCC1OC(OC2C(NC(=N)N)CC(NC(=N)N)C(OC3OC(CO)C(O)C(NC(=N)N)C3O)C2O)C(NC(=N)N)C(O)C1O (centres unmarked) [guanidino-kanamycinB, Guanidino Kanamycin B]	3.5	4.7	1.6	3	3.5										
NC(N)=NC[C@@H]1O[C@H](O[C@H]2[C@H](O)[C@@H](O[C@H]3O[C@@H](CO)[C@H](O)[C@@H](N=C(N)N)[C@@H]3O)[C@H](N=C(N)N)C[C@@H]2N=C(N)N)[C@@H](O)[C@H](O)[C@H]1O [guanidino-kanamycinA, Guanidino Kanamycin A]	55	60	1.2	50	65	8									
N=C(N)NC[C@@H]1O[C@H](O[C@H]2[C@@H](O)[C@H](O[C@@H]3[C@@H](O)[C@H](NC(=N)N)C[C@H](NC(=N)N)[C@H]3O[C@H]3O[C@H](CNC(=N)N)[C@@H](O)[C@H](O)[C@H]3NC(=N)N)O[C@@H]2CO)[C@H](NC(=N)N)[C@@H](O)[C@@H]1O [guanidino-neomycin B, Guanidino Neomycin]	0.9	4.5	5.6	0.8	1.3	0.2	approximately 100 times								
N=C(N)NCC1OC(OC2C(CO)OC(OC3C(O)C(NC(=N)N)CC(NC(=N)N)C3OC3OC(CO)C(O)C(O)C3NC(=N)N)C2O)C(NC(=N)N)C(O)C1O (centres unmarked) [guanidino-paromomycin, Guanidino Paromomycin]	16	20	1.4	14	18										
NC[C@H]1O[C@H](O[C@H]2[C@H](O)[C@@H](O[C@H]3O[C@H](CO)[C@@H](O)[C@H](N)[C@H]3O)[C@H](N)C[C@@H]2N)[C@H](N)C[C@@H]1O [Tobramycin]	50	140	3.1	45	44			55	1.1	50	decreases	significantly lower activity in the presence of tRNA	10		
N=C(N)NCC1OC(OC2C(NC(=N)N)CC(NC(=N)N)C(OC3OC(CO)C(O)C(NC(=N)N)C3O)C2O)C(NC(=N)N)CC1O (centres unmarked) [guanidino-tobramycin]	3.5	5	1.7	3	3.8	0.65	approximately 100 times	3	3.5	2.5		approximately the same activity in the presence of both competing DNA and tRNA		about 20 fold	
NC[C@@H]1O[C@H](O[C@H]2[C@@H](O)[C@H](O[C@@H]3[C@@H](O)[C@H](N)C[C@H](N)[C@H]3O[C@H]3O[C@H](CN)[C@@H](O)[C@H](O)[C@H]3N)O[C@@H]2CO)[C@H](N)[C@@H](O)[C@@H]1O [Neomycin B, Neomycin]	8	16	2.7	6	6						increases		1		5
NC[C@H]1O[C@H](O[C@H]2[C@H](O)[C@@H](O[C@H]3O[C@H](CO)[C@@H](O)[C@H](N)[C@H]3O)[C@H](N)C[C@@H]2N)[C@H](N)[C@@H](O)[C@@H]1O [KanamycinB, Kanamycin B]	90	160	2.0	80	80						decreases				
NC[C@H]1O[C@H](O[C@H]2[C@H](O)[C@@H](O[C@H]3O[C@H](CO)[C@@H](O)[C@H](N)[C@H]3O)[C@H](N)C[C@@H]2N)[C@H](O)[C@@H](O)[C@@H]1O [KanamycinA, Kanamycin A]	750	1300	1.9	700	750						decreases		100		
NC[C@@H]1O[C@H](O[C@H]2[C@@H](O)[C@H](O[C@@H]3[C@@H](O)[C@H](N)C[C@H](N)[C@H]3O[C@H]3O[C@H](CO)[C@@H](O)[C@H](O)[C@H]3N)O[C@@H]2CO)[C@H](N)[C@@H](O)[C@@H]1O [Paromomycin]	60	110	2.0	55	65						decreases				5

Reference: US6833445B2, “Guanidinylation, guanidinoglycosides, uses, and methods of assaying their activity” (The Regents of the University of California, priority 2000, dated 2004)
